Laboratory results reported in article PMC5309245, “Discovery and Characterization of Diazenylaryl Sulfonic Acids as Inhibitors of Viral and Bacterial Neuraminidases” (Frontiers in Microbiology, 2017).

Tests used:
[1] = molecular target: influenza virus A/WSN/33 NA-Y155H (Influenza A virus, UniProt P03470, Y139H); format: biochemical, influenza A virus A/WSN/1933 (H1N1)
[2] = system: influenza virus A/WSN/33 NA-I427Q
[3] = system: influenza virus A/WSN/33 NA-I427M
[4] = molecular target: influenza virus A/WSN/33 NA-Q136L (Influenza A virus, UniProt P03470, Q120L); format: biochemical, influenza A virus A/WSN/1933 (H1N1)
[5] = molecular target: influenza virus A/WSN/33 NA-H274Y (Influenza A virus, UniProt P03470, H259Y); format: biochemical, influenza A virus A/WSN/1933 (H1N1)
[6] = molecular target: influenza virus A/WSN/33 NA-N294S (Influenza A virus, UniProt P03470, N279S); format: biochemical, influenza A virus A/WSN/1933 (H1N1)
[7] = molecular target: IAV WSN/33 NA-wt (whole virus) (Influenza A virus, UniProt P03470); experiment: biochemical; set-up: species or system influenza A virus A/WSN/1933 (H1N1); details: read-out: IC50, NA-wt
[8] = molecular target: influenza virus A/WSN/33 NA-I427Q (Influenza A virus, UniProt P03470, I411Q); details: read-out: IC50, NA-I427Q
[9] = molecular target: influenza virus A/WSN/33 NA-I427M (Influenza A virus, UniProt P03470, I411M); details: read-out: IC50, NA-I427M

SMILES | FC, NA-Y155H [1] | FC, NA-I427Q [2] | FC, NA-I427M [3] | FC, NA-Q136L [4] | FC, NA-H274Y [5] | FC, NA-N294S [6] | IC50 [1] [µM] | IC50 [7] [nM] | IC50 [8] [µM] | IC50 [9] [nM] | IC50 [4] [nM] | IC50 [5] [nM] | IC50 [6] [µM]
Cc1cc(N=Nc2ccc(N=Nc3c(O)c(S(=O)(=O)O)cc4cc(S(=O)(=O)O)ccc34)cc2C)ccc1N=Nc1ccc2cc(S(=O)(=O)O)cc(S(=O)(=O)O)c2c1 [Compound 1, 7-[2-[4-[2-[4-[2-(2-hydroxy-3,6-disulfo-1-naphthalenyl)diazenyl]-2-methylphenyl]diazenyl]-2-methylphenyl]diazenyl]-1,3-naphthalenedisulfonic acid] | 1 | 1 | 2 | 2 | 3 | 1 | – | – | – | – | – | – | –
O=S(=O)(O)c1ccc2c(/N=N/c3ccc(Sc4ccc(/N=N/c5c(O)ccc6cc(S(=O)(=O)O)ccc56)cc4)cc3)c(O)ccc2c1 [Compound 2] | 0.2 | 1 | 1 | 2 | 2 | 1 | – | – | – | – | – | – | –
Cc1ccccc1/N=N/c1ccc(/N=N/c2c(O)ccc3cc(S(=O)(=O)O)cc(S(=O)(=O)O)c23)c(C)c1 [Compound 5] | 1 | 2 | 2 | 2 | 3 | 3 | – | – | – | – | – | – | –
CC(=O)N[C@H]1[C@H]([C@H](O)[C@H](O)CO)OC(C(=O)O)=C[C@@H]1O [DANA, 2,3-dehydro-2-deoxy-N-acetylneuraminic acid, reference compound] | 3 | – | 1 | 1 | 1 | 3 | 8.36 ± 3.13 | 2440 ± 1080 | 12.8 ± 0.75 | 2210 ± 620 | 2330 ± 1320 | 2510 ± 1380 | 8.12 ± 2.07
